Measurements reported in patent US20250127743A1, “USE OF BRANCHED CHAIN FATTY ACIDS (BCFAS) FOR THE TREATMENT OF INTESTINAL INFLAMMATION” (priority 2021, published 2025).
Read-outs that look alike come from different tables or passages of the source.

Columns and labels:
[1] = tested on: proteins conjugated to SUMO2/3 in CACO2 cells; assay: Immunoblot quantification of SUMO2/3-conjugated proteins (above 50 kDa) in CACO2 cells; format: cell-based; details: for effect of ROS scavenger preincubation on BCFAs-induced hyperSUMOylation: 30 min pre-incubation with 5 mM NAC or 10 μM DPI, then 1h 5 mM isobutyric or isovaleric acid
Procedure: (§1) CACO2 and HeLa cells were cultivated in Minimum Essential Medium (MEM) (Eurobio) supplemented with 2 mM L-Glutamine (Invitrogen), 10% Fetal Bovine Serum (FBS, Eurobio), non-essential aminoacids (Sigma), 1 mM sodium pyruvate (Gibco) and a mixture of penicillin (10000 U/mL) and streptomycin (10 mg/mL). […] CACO2 and T84 cells were seeded in wells at a density of 1.1×10^5 cells/cm^2 and 1.7×10^5 cells/cm^2, respectively, the day before incubation with BCFAs or SCFAs.
(§2) Before treatments, cell culture medium was replaced by HBSS (Hanks' Balanced Salt Solution; Sigma). Cells were then treated as indicated in the text and directly lysed with Laemmli buffer. For BCFAs and SCFAs treatments, 100 mM stock solutions in water were first prepared from the corresponding acidic form (e.g. isobutyric acid) or from the sodium salt of the corresponding basic form (e.g. sodium isobutyrate) and then further diluted in cell culture media (HBSS). When needed, the pH of cell culture medium was set using either 0.1 M NaOH or 0.1 M HCl solution. […] For TNFα treatments, CACO2 cells were first incubated with BCFAs or SCFAs for 1 hour and then incubated with 100 ng/mL recombinant human TNFα (PeproTech). For immunoblotting and qRT-PCR analyses, cells were lysed after 30 min or 1h of incubation with TNFα, respectively. For Transepithelial electrical resistance (TEER) measurements, cells were incubated for 24 h with TNFα. Viability of cells incubated with HBSS at various pH or with BCFAs was assessed using the CellTiter-Glo® luminescent cell viability assay (Promega), according to the manufacturer's protocol.
(§3) Cell lysates and protein extracts from intestinal tissues in Laemmli buffer were boiled for 5 min, sonicated and protein content was resolved using SDS-polyacrylamide gel electrophoresis. Proteins were then transferred on PVDF membranes (GE Healthcare) and detected after incubation with specific antibodies using ECL Clarity Western blotting Substrate (BioRad). […] Quantifications of proteins were performed on a ChemiDoc Imaging System (Bio-rad). SUMO2/3-conjugated proteins levels (above 50 kDa), SUMO1-conjugated protein levels (above 50 kDa), and other specific protein levels were normalized either by the level of total proteins above 50 kDa (determined using the TGX-stain free imaging technology; Bio-rad) or by the level of actin in each lysate.

IκBα = assay: Immunoblot of IκBα levels in TNFα-stimulated CACO2 cells; format: cell-based; details: 1 hour pre-incubation with 5 mM, then 30 min 100 ng/mL TNFα
Procedure: as §2, §3

HeLa cells = HeLa cells (Kumar et al., 2009); cited from earlier work
[2] = tested on: IEC-6 intestinal epithelial cells; details: IEC-6 intestinal epithelial cells (Kumar et al., 2009); cited from earlier work
[3] = tested on: cullin-1 neddylation in HeLa cells; details: HeLa cells (Kumar et al., 2007; Kumar et al., 2009); cited from earlier work
CACO2 cells [4] = assay: Luminol-based ROS detection assay in CACO2 cells; format: cell-based; details: for ROS production: 1h of incubation; for level of ROS: 5h of incubation, compared with 1h
Procedure: Luminol was dissolved in NaOH 0.1 M to obtain a 50 mM stock solution. A stock solution of 1000 U/mL HRP (HorseRadish Peroxidase) was prepared in parallel in PBS (Phosphate-Buffered Saline). After treatment with BCFAs or SCFAs or incubation in HBSS at pH 5.2, CACO2 and HeLa culture media were collected and centrifugated for 5 min at 13,000×g at room temperature. The pH of these culture media was then buffered to 7.5 to avoid pH-dependent interferences with luminol activity. Luminol (1 mM final concentration) and HRP (4 U/mL) were finally added to each culture media and luminescence was quantified immediately on a luminometer (Tecan).

T84 cells = assay: Intracellular pH (BCECF-AM) in T84 cells; details: 5 mM
Procedure: CACO2 and T84 cells, grown in 96-well plates were loaded with 2 μM BCECF-AM (2′,7′-Bis-(2-Carboxyethyl)-5-(and-6)-Carboxyfluorescein, Acetoxymethyl Ester; Invitrogen) for 30 min in HBSS at 37° C. […] Cells were then washed twice and incubated in HBSS with or without BCFAs or with HBSS at definite pH. Cell fluorescence (λEmission535 nm) was recorded at two different excitation wavelengths: 440 nm and 490 nm. Comparison of the ratios of fluorescence intensities (490/440 nm) was performed to detect changes in intracellular pH. Calibration solutions (with pH ranging from 4.5 to 7.5) were used as controls (Intracellular pH Calibration Buffer Kit; Molecular Probes).

IL8 = assay: qRT-PCR of IL8 mRNA in TNFα-stimulated CACO2 cells; format: cell-based; details: 1 hour pre-treatment, then 1 hour 100 ng/mL TNFα
Procedure: as §2, with “For Transepithelial electrical resistance (TEER) measurements, cells were incubated for 24 h with TNFα.” left out
(§4) Total RNAs were extracted from CACO2 cells using the RNeasy Plus Mini kit (Qiagen) following manufacturer's instructions. […] Specific cDNAs were then quantified by qPCR using Itaq Universal SYBR Green Supermix (BioRad) on a Mastercycler ep Realplex system (Eppendorf, Hamburg, Germany). […]

CCL20 = assay: qRT-PCR of CCL20 mRNA in TNFα-stimulated CACO2 cells; format: cell-based; details: 1 hour pre-treatment, then 1 hour 100 ng/mL TNFα
Procedure: as §2, with “For Transepithelial electrical resistance (TEER) measurements, cells were incubated for 24 h with TNFα.” left out
as §4

[5] = pH and acid/base forms of BCFA in HBSS medium; format: physicochemical; details: 5 mM added to HBSS medium
Procedure: as §2
BCFAs are weak organic acids, which exist in solution either as acidic (R—COOH) or basic (R—COO^−) forms.

deSUMOylases = assay: DeSUMOylase activity assay (SUMO-AMC cleavage) in lysates of treated CACO2 and T84 cells; format: cell-based; details: 5 mM for 5 h, cell lysates
Procedure: For in vitro cell lines, CACO2 and T84 cells grown in 12-well plates were scraped in 100 μL lysis buffer (Tris HCl pH 8.0 50 mM, EDTA 5 mM, NaCl 200 mM, Glycerol 10%, NP40 0.5%). For in vivo tissues, caecal segments were resuspended in lysis buffer (800 μL for 100 mg of tissues), mechanically lysed using bead beating and further diluted 25 times in lysis buffer. Negative controls were prepared by adding 10 mM N-ethymaleimide (NEM; Sigma-Aldrich) to cell lysates. Recombinant human SUMO1-AMC and SUMO2-AMC proteins (R&D Systems) were diluted in parallel to 500 nM in Assay buffer (Tris HCl pH 8.0 50 mM, Bovine Serum Albumin (BSA) 100 μg/mL, Dithiothreitol (DTT) 10 mM). For each measurement, 10 μL of cell or tissue lysates were mixed with 40 μL of SUMO-AMC containing Assay buffer and fluorescence (λEx=380 nm; λEm=460 nm) was recorded for 30 min at 37° C. on a Flexstation 3 microplate reader (Molecular Devices). DeSUMOylase activities were determined by calculating the initial rate of fluorescence emission in each lysate and by normalizing by the quantity of proteins in the corresponding sample, determined in parallel using BCA assays (Pierce™ BCA Protein Assay Kit).

[6] = tested on: proteins conjugated to SUMO2/3 in T84 cells; assay: Immunoblot of SUMO2/3-conjugated proteins in T84 cells; format: cell-based; details: 5 mM, 1h of incubation
Procedure: as §1
Before treatments, cell culture medium was replaced by HBSS (Hanks' Balanced Salt Solution; Sigma). Cells were then treated as indicated in the text and directly lysed with Laemmli buffer. […] Viability of cells incubated with HBSS at various pH or with BCFAs was assessed using the CellTiter-Glo® luminescent cell viability assay (Promega), according to the manufacturer's protocol.
Cell lysates and protein extracts from intestinal tissues in Laemmli buffer were boiled for 5 min, sonicated and protein content was resolved using SDS-polyacrylamide gel electrophoresis. Proteins were then transferred on PVDF membranes (GE Healthcare) and detected after incubation with specific antibodies using ECL Clarity Western blotting Substrate (BioRad). […] Quantifications of proteins were performed on a ChemiDoc Imaging System (Bio-rad). […]

SAE1/SAE2 or UBC9 = assay: Immunoblot of E1 and E2 SUMO enzyme levels in CACO2 cells; format: cell-based
Procedure: as §3

CACO2 cells [7] = assay: Transepithelial electrical resistance (TEER) of differentiated CACO2 monolayers with TNFα; format: cell-based; details: differentiated CACO2 in Transwell, 1 hour pre-treatment, then 24 hours 100 ng/mL TNFα
Procedure: CACO2 cells were seeded in Transwell inserts and cultivated for 21 days. Monolayer formation and differentiation was monitored by daily evaluation of transepithelial electrical resistance (TEER) measurement, performed with an EVOM epithelial voltohm meter equipped with “chopstick” electrodes. After three weeks, cell culture media were replaced by HBSS. Cells were then preincubated or not with isobutyric or isovaleric acids for 1 hour. 100 ng/mL TNFα was then added to both apical and basolateral compartments. TEER was evaluated after 24h of incubation.

CACO2 cells [8] = assay: Intracellular pH (BCECF-AM) in CACO2 cells; format: cell-based; details: 5 mM
[9] = tested on: cullin-1 neddylation in HeLa cells; assay: Cullin-1 neddylation in HeLa cells; format: cell-based; details: 5h of incubation
Procedure: as §1, §3

[10] = CACO2 cells, 5h, pH~5.2, 5 mM final concentration
[11] = CACO2 cells, pH~7.5, 5 mM final concentration

c1ccc2c(c1)[I+]c1ccccc1-2 [DPI, Diphenyleneiodonium]
effect of ROS scavenger preincubation on BCFAs-induced hyperSUMOylation ([1]; CACO2 cells): significantly block

CC(=O)N[C@@H](CS)C(=O)O [NAC, N-acetyl cysteine]
effect of ROS scavenger preincubation on BCFAs-induced hyperSUMOylation ([1]; CACO2 cells): significantly block

CC(=O)O [acetic acid]
level of SUMO2/3-conjugated proteins [1]: significant increase

CCCC(=O)O [butyric acid]
level of SUMO2/3-conjugated proteins [1, 10]: significant increase
TNFα-triggered degradation of IκBα (IκBα): block
ROS production (HeLa cells): induce ROS
ROS production [2]: induce ROS
cullin-1 neddylation [3]: trigger the loss of cullin-1 neddylation
ROS production (CACO2 cells [4]): induce ROS production
level of ROS (CACO2 cells [4]): less important

CC(C)C(=O)O [isobutyric acid]
level of proteins conjugated to SUMO2/3 ([1]; CACO2 cells, 5 mM, 1h or 5h of incubation): significant increase
TNFα-triggered degradation of IκBα (IκBα): block
intracellular pH (pHi) (T84 cells): significant decrease
IL8 mRNA expression in response to TNFα (IL8): downregulate
CCL20 mRNA expression in response to TNFα (CCL20): downregulate
concentration present as isobutyrate [5]: ~3500 µM
concentration present as isobutyric acid [5]: ~1500 µM
pH of HBSS medium after addition [5]: ~5.2
proportion present as isobutyrate [5]: ~72%
proportion present as isobutyric acid [5]: ~28%
initial rate of SUMO deconjugation, SUMO1-AMC substrate (deSUMOylases): significantly decrease
initial rate of SUMO deconjugation, SUMO2-AMC substrate (deSUMOylases): significantly decrease
hyperSUMOylation (SUMO2/3-conjugated proteins) [6]: hyperSUMOylation is similarly observed
level of SAE1/SAE2 or UBC9 (SAE1/SAE2 or UBC9): do not alter
TNFα-induced increase in epithelial permeability (TEER) (CACO2 cells [7]): block
intracellular pH (pHi) (CACO2 cells [8]): significant decrease
cullin-1 neddylation [9]: triggers cullin-1 deneddylation
ROS production (CACO2 cells [4]): induce ROS production
level of ROS (CACO2 cells [4]): less important

CCC(=O)O [propionic acid]
level of SUMO2/3-conjugated proteins [1, 10]: significant increase

CC(=O)[O-].[Na+] [sodium acetate]
SUMOylation pattern [1]: does not trigger any changes

CCCC(=O)[O-].[Na+] [sodium butyrate, reference compound]
SUMOylation pattern [1, 11]: does not trigger any changes
TNFα-triggered degradation of IκBα (IκBα): not observed
ROS detection after incubation with sodium salts (basic forms) (CACO2 cells [4]): no ROS were detected

CCC(=O)[O-].[Na+] [sodium propionate]
SUMOylation pattern [1, 11]: does not trigger any changes
